According to US20120316105A1, “Polymyxin Derivates Useful As Antibacterial Agents” (priority 2011, published 2012):
Bridge positions count the residues as written; N and C are the ends. Square brackets hold non-standard residues; d marks the D form. Peptide text beside a SMILES is read from it. * marks the point of attachment. Benzoyl(3-Ph) = O=C(c1cccc(-c2ccccc2)c1)*; Benzoyl(4-Ph) = O=C(c1ccc(-c2ccccc2)cc1)*; X17 = N#Cc1ccc(-c2cccc(C(=O)*)c2)cc1; X19 = N#Cc1ccc(-c2cccc(C(=O)*)c2)nc1; X2 = N#Cc1ccc(-c2cc(C(=O)*)ccn2)cc1F; X15 = O=C(c1cccc(-c2cccc(F)c2)c1)*; X32 = N#Cc1cc(C(=O)*)ccc1-c1ccccc1; X35 = N#Cc1ccc(C(=O)*)cc1-c1ccccc1; X11 = Cc1ccccc1-c1cccc(C(=O)*)c1; X27 = O=C(c1cncc(-c2ccccc2)c1)*; Dab = NCC[C@H](N)C(=O)O; Dap = NC[C@H](N)C(=O)O

Key:
[1] = tested on: AB-3167, clinical isolate of Acinetobacter baumannii; format: cell-based; conditions: AB-3167, clinical isolate of
Outline: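 Broth dilution MIC per CLSI (M7-A8, M100-S20, M26-A for bactericidal), 2-fold dilution series, overnight incubation, visual read of lowest concentration inhibiting growth versus drug-free control. Duplicates run; lower value reported if within 2-fold, otherwise repeated. Compounds tested as trifluoroacetate salts; QC strains and reference compounds required in range.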

[2] = tested on: AB-1649, polymyxin-resistant clinical isolate of Acinetobacter baumannii; format: cell-based; conditions: AB-1649, polymyxin-resistant clinical isolate of
Outline: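 Broth dilution MIC per CLSI against the polymyxin-resistant A. baumannii isolate, 2-fold dilutions, overnight incubation, visual read of lowest concentration inhibiting growth. Run in duplicate, lower value reported when within 2-fold; MBC per CLSI M26-A guideline.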

[3] = tested on: PA-1646, polymyxin-resistant clinical isolate of Pseudomonas aeruginosa; format: cell-based; conditions: PA-1646, polymyxin-resistant clinical isolate of
Outline: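 Broth dilution MIC per CLSI with 2-fold concentration steps, read visually after overnight incubation as lowest concentration inhibiting growth; duplicates within 2-fold, lower value reported, with QC strains and reference compounds. Compounds tested as trifluoroacetate salts, polymyxin B as sulfate.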

[4] = tested on: Pseudomonas aeruginosa strain PA01; format: cell-based; conditions: strain
Outline: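 CLSI broth dilution against P. aeruginosa PA01 with two-fold concentration steps and overnight incubation; MIC is lowest concentration visibly inhibiting growth versus drug-free control, in mg/L. Compounds tested as trifluoroacetate salts, in duplicate, lower value reported if within 2-fold; control organisms and reference compounds included.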

[5] = Cytotoxicity assay (LDH release), hRPTEC; format: cell-based, human; conditions: human
Outline: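 hRPTEC grown 72 h in REGM, then exposed to compounds at 100, 67, 44, 30, 20 and 13 micromolar for 24 h at 37° C, 5% CO2. LDH released into supernatant measured; TC50 (micromolar) derived. Compounds tested as trifluoroacetate salts unless otherwise noted.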

[6] = tested on: EC-1, mouse virulent strain of Escherichia coli; format: cell-based; conditions: E. coli EC-1; overnight incubation, lower of duplicate values; trifluoroacetate salt (Example 1 and PMB sulfate)
Outline: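 Broth dilution per CLSI with 2-fold concentration steps and overnight incubation. MIC is the lowest concentration visibly inhibiting growth versus drug-free control, run in duplicate with the lower value reported. Duplicates differing by >2-fold were repeated, and control strains and reference compounds had to fall within range.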

[7] = tested on: PA-1646, polymyxin-resistant clinical isolate of Pseudomonas aeruginosa; format: cell-based; conditions: PA-1646, polymyxin-resistant clinical isolate of; remark: listed apart in the source
Outline: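 Broth dilution MIC and bactericidal (MBC) testing per CLSI methods (M7-A8, M100-S20, M26-A) against polymyxin-resistant clinical P. aeruginosa isolate PA-1646. Compounds tested as trifluoroacetate salts, one as sulfate salt; values in mg/L.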

[8] = tested on: AB-1649, polymyxin-resistant clinical isolate of Acinetobacter baumannii; format: cell-based; conditions: AB-1649, polymyxin-resistant clinical isolate of; remark: listed apart in the source
Outline: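 MIC and MBC were measured by CLSI broth dilution methods (M7-A8, M100-S20, M26-A) against a polymyxin-resistant clinical isolate and reported in mg/L. Compounds were tested as trifluoroacetate salts, with one exception tested as the sulfate.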

SMILES | AB-3167 MIC [1] [µg/mL] | AB-1649 MIC [2] [µg/mL] | PA-1646 MIC [3] [µg/mL] | PA01 MIC [4] [µg/mL] | CC50 at 24 h [5] [µM] | EC-1 MIC [6] [µg/mL] | PA-1646 MBC [7] [µg/mL] | AB-1649 MBC [8] [µg/mL]
CC(C)C[C@@H]1NC(=O)[C@@H](Cc2ccccc2)NC(=O)[C@H](CCN)NC(=O)[C@@H](NC(=O)[C@H](CN)NC(=O)[C@@H](NC(=O)[C@H](CCN)NC(=O)c2cccc(-c3ccc(C#N)cn3)c2)[C@@H](C)O)CCNC(=O)[C@H]([C@@H](C)O)NC(=O)[C@H](CCN)NC(=O)[C@H](CCN)NC1=O [Example 26] (X19-[Dab]T[Dap][Dab][Dab][dF]L[Dab][Dab]T; lactam 4-C) | 1 | 4 | 4 | 1 | 77 | 0.25 | 8 | 4
CC(C)C[C@@H]1NC(=O)[C@@H](Cc2ccccc2)NC(=O)[C@H](CCN)NC(=O)[C@@H](NC(=O)[C@H](CN)NC(=O)[C@@H](NC(=O)[C@H](CCN)NC(=O)c2ccnc(-c3ccc(C#N)c(F)c3)c2)[C@@H](C)O)CCNC(=O)[C@H]([C@@H](C)O)NC(=O)[C@H](CCN)NC(=O)[C@H](CCN)NC1=O [Example 31] (X2-[Dab]T[Dap][Dab][Dab][dF]L[Dab][Dab]T; lactam 4-C) | 0.5 | 4 | 4 | 1 | 55 | 0.5 | 8 | 16
Cc1ccccc1-c1cccc(C(=O)N[C@@H](CCN)C(=O)N[C@H](C(=O)N[C@@H](CN)C(=O)N[C@H]2CCNC(=O)[C@H]([C@@H](C)O)NC(=O)[C@H](CCN)NC(=O)[C@H](CCN)NC(=O)[C@H](CC(C)C)NC(=O)[C@@H](Cc3ccccc3)NC(=O)[C@H](CCN)NC2=O)[C@@H](C)O)c1 [Example 21] (X11-[Dab]T[Dap][Dab][Dab][dF]L[Dab][Dab]T; lactam 4-C) | 0.25 | 2 | 2 | 1 | 15 | 0.25 | 2 | 2
CC(C)C[C@@H]1NC(=O)[C@@H](Cc2ccccc2)NC(=O)[C@H](CCN)NC(=O)[C@@H](NC(=O)[C@H](CN)NC(=O)[C@@H](NC(=O)[C@H](CCN)NC(=O)c2cncc(-c3ccccc3)c2)[C@@H](C)O)CCNC(=O)[C@H]([C@@H](C)O)NC(=O)[C@H](CCN)NC(=O)[C@H](CCN)NC1=O [Example 30] (X27-[Dab]T[Dap][Dab][Dab][dF]L[Dab][Dab]T; lactam 4-C) | 0.25 | 4 | 2 | 0.5 | 56 | 0.125 | 4 | 4
CC(C)C[C@@H]1NC(=O)[C@@H](Cc2ccccc2)NC(=O)[C@H](CCN)NC(=O)[C@@H](NC(=O)[C@H](CN)NC(=O)[C@@H](NC(=O)[C@H](CCN)NC(=O)c2cccc(-c3ccc(C#N)cc3)c2)[C@@H](C)O)CCNC(=O)[C@H]([C@@H](C)O)NC(=O)[C@H](CCN)NC(=O)[C@H](CCN)NC1=O [Example 32] (X17-[Dab]T[Dap][Dab][Dab][dF]L[Dab][Dab]T; lactam 4-C) | 0.5 | 4 | 2 | 0.5 | 33 | 0.25 | 4 | 4
CC(C)C[C@@H]1NC(=O)[C@@H](Cc2ccccc2)NC(=O)[C@H](CCN)NC(=O)[C@@H](NC(=O)[C@H](CN)NC(=O)[C@@H](NC(=O)[C@H](CCN)NC(=O)c2cccc(-c3cccc(F)c3)c2)[C@@H](C)O)CCNC(=O)[C@H]([C@@H](C)O)NC(=O)[C@H](CCN)NC(=O)[C@H](CCN)NC1=O [Example 18] (X15-[Dab]T[Dap][Dab][Dab][dF]L[Dab][Dab]T; lactam 4-C) | 0.5 | 2 | 1 | 1 | 22 | 0.25 | 1 | 2
CC(C)C[C@@H]1NC(=O)[C@@H](Cc2ccccc2)NC(=O)[C@H](CCN)NC(=O)[C@@H](NC(=O)[C@H](CN)NC(=O)[C@@H](NC(=O)[C@H](CCN)NC(=O)c2ccc(C#N)c(-c3ccccc3)c2)[C@@H](C)O)CCNC(=O)[C@H]([C@@H](C)O)NC(=O)[C@H](CCN)NC(=O)[C@H](CCN)NC1=O [Example 2] (X35-[Dab]T[Dap][Dab][Dab][dF]L[Dab][Dab]T; lactam 4-C) | 0.25 | 0.5 | 2 | 0.25 | 39 | 0.125 | 4 | 0.5
CC(C)C[C@@H]1NC(=O)[C@@H](Cc2ccccc2)NC(=O)[C@H](CCN)NC(=O)[C@@H](NC(=O)[C@H](CN)NC(=O)[C@@H](NC(=O)[C@H](CCN)NC(=O)c2ccc(-c3ccccc3)c(C#N)c2)[C@@H](C)O)CCNC(=O)[C@H]([C@@H](C)O)NC(=O)[C@H](CCN)NC(=O)[C@H](CCN)NC1=O [Example 8] (X32-[Dab]T[Dap][Dab][Dab][dF]L[Dab][Dab]T; lactam 4-C) | 0.25 | 1 | 2 | 1 | 32 | 0.5 | 4 | 1
CC(C)C[C@@H]1NC(=O)[C@@H](Cc2ccccc2)NC(=O)[C@H](CCN)NC(=O)[C@@H](NC(=O)[C@H](CN)NC(=O)[C@@H](NC(=O)[C@H](CCN)NC(=O)c2ccc(-c3ccccc3)cc2)[C@@H](C)O)CCNC(=O)[C@H]([C@@H](C)O)NC(=O)[C@H](CCN)NC(=O)[C@H](CCN)NC1=O [Example 45] ({Benzoyl(4-Ph)}-[Dab]T[Dap][Dab][Dab][dF]L[Dab][Dab]T; lactam 4-C) | 0.25 | 1 | 0.5 | 0.5 | 28 | 0.25 | 1 | 1
CC(C)C[C@@H]1NC(=O)[C@@H](Cc2ccccc2)NC(=O)[C@H](CCN)NC(=O)[C@@H](NC(=O)[C@H](CN)NC(=O)[C@@H](NC(=O)[C@H](CCN)NC(=O)c2cccc(-c3ccccc3)c2)[C@@H](C)O)CCNC(=O)[C@H]([C@@H](C)O)NC(=O)[C@H](CCN)NC(=O)[C@H](CCN)NC1=O [Example 19] ({Benzoyl(3-Ph)}-[Dab]T[Dap][Dab][Dab][dF]L[Dab][Dab]T; lactam 4-C) | 0.25 | 2 | 1 | 0.5 | 21 | 0.25 | 2 | 2
